Reference: PubChem BioAssay (NCI)
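Results reflect a 48-hour exposure of cells in 96-well plates to compound at five concentrations. The concentration for full growth arrest is given as TGI.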

Experiments:
Test in all cases: NCI tumour cell line growth inhibition, 48 h
[1] = tested on: HOP-18 NSCLC
[2] = tested on: SK-MEL-5 melanoma
[3] = tested on: IGROV1 ovarian
[4] = tested on: NCI-H460 lung
[5] = tested on: 786-0 renal
[6] = tested on: RPMI-8226 leukemia
[7] = tested on: CCRF-CEM leukemia
[8] = tested on: DLD-1 colon
[9] = tested on: NCI-H226 lung
[10] = tested on: TK-10 renal
[11] = tested on: UACC-257 melanoma
[12] = tested on: M14 melanoma
[13] = tested on: A549 NSCLC
[14] = tested on: NCI-H23 lung
[15] = tested on: SN12C renal
[16] = tested on: KM12 colon
[17] = tested on: SW-620 colon
[18] = tested on: M19-MEL melanoma
[19] = tested on: OVCAR-5 ovarian
[20] = tested on: HL-60(TB) leukemia
[21] = tested on: SNB-75 CNS
[22] = tested on: DMS 114 small cell lung
[23] = tested on: OVCAR-4 ovarian
[24] = tested on: SK-MEL-2 melanoma
[25] = tested on: EKVX NSCLC
[26] = tested on: SNB-19 CNS
[27] = tested on: SNB-78 CNS
[28] = tested on: U251 CNS
[29] = tested on: LXFL 529 NSCLC
[30] = tested on: K-562 leukemia
[31] = tested on: UACC-62 melanoma
[32] = tested on: SR leukemia
[33] = tested on: HOP-62 NSCLC
[34] = tested on: SF-539 CNS
[35] = tested on: ACHN renal
[36] = tested on: A498 renal
[37] = tested on: HOP-92 NSCLC
[38] = tested on: RXF-631 renal
[39] = tested on: MOLT-4 leukemia
[40] = tested on: KM20L2 colon
[41] = tested on: CAKI-1 renal
[42] = tested on: XF 498 CNS
[43] = tested on: SK-OV-3 ovarian
[44] = tested on: SF-295 CNS
[45] = tested on: OVCAR-3 ovarian
[46] = tested on: MALME-3M melanoma
[47] = tested on: UO-31 renal
[48] = tested on: SK-MEL-28 melanoma
[49] = tested on: HCT-15 colon
[50] = tested on: HT29 colon
[51] = tested on: HCT-116 colon
[52] = tested on: NCI-H522 lung
[53] = tested on: COLO 205 colon
[54] = tested on: OVCAR-8 ovarian
[55] = tested on: DMS 273 small cell lung
[56] = tested on: SF-268 CNS
[57] = tested on: RXF 393 renal
[58] = tested on: LOX IMVI melanoma
[59] = tested on: HCC-2998 colon

O=C(CCc1nc(=S)[nH][nH]1)Nc1ccc(Cl)c(Cl)c1
TGI [1]: > 100 µM | TGI [2]: 55.9 µM | TGI [3]: > 100 µM | TGI [4]: > 100 µM | TGI [5]: > 100 µM | TGI [6]: > 100 µM | TGI [7]: > 100 µM | TGI [8]: > 100 µM | TGI [9]: > 100 µM | TGI [10]: > 100 µM | TGI [11]: > 100 µM | TGI [12]: > 100 µM | TGI [13]: > 100 µM | TGI [14]: > 100 µM | TGI [15]: > 100 µM | TGI [16]: > 100 µM | TGI [17]: > 100 µM | TGI [18]: > 100 µM | TGI [19]: > 100 µM | TGI [20]: > 100 µM | TGI [21]: 75.5 µM | TGI [22]: > 100 µM | TGI [23]: > 100 µM | TGI [24]: 31.2 µM | TGI [25]: > 100 µM | TGI [26]: > 100 µM | TGI [27]: > 100 µM | TGI [28]: > 100 µM | TGI [29]: > 100 µM | TGI [30]: > 100 µM | TGI [31]: 22 µM | TGI [32]: > 100 µM | TGI [33]: > 100 µM | TGI [34]: > 100 µM | TGI [35]: > 100 µM | TGI [36]: > 100 µM | TGI [37]: > 100 µM | TGI [38]: > 100 µM | TGI [39]: > 100 µM | TGI [40]: 31.6 µM | TGI [41]: > 100 µM | TGI [42]: > 100 µM | TGI [43]: > 100 µM | TGI [44]: > 100 µM | TGI [45]: > 100 µM | TGI [46]: > 100 µM | TGI [47]: > 100 µM | TGI [48]: > 100 µM | TGI [49]: 65.6 µM | TGI [50]: > 100 µM | TGI [51]: > 100 µM | TGI [52]: 72.1 µM | TGI [53]: > 100 µM | TGI [54]: > 100 µM | TGI [55]: > 100 µM | TGI [56]: > 100 µM

COc1cc2cc(OC)c3cc4c(cc3c2c(OC)c1OC)OCO4
TGI [1]: > 100 µM | TGI [2]: > 57.2 µM | TGI [3]: > 100 µM | TGI [4]: 52 µM | TGI [5]: > 90.4 µM | TGI [6]: 52.9 µM | TGI [7]: 37.9 µM | TGI [8]: 51.5 µM | TGI [9]: > 100 µM | TGI [10]: > 84.4 µM | TGI [11]: > 100 µM | TGI [12]: > 62.1 µM | TGI [13]: > 95.8 µM | TGI [14]: > 81.2 µM | TGI [57]: > 100 µM | TGI [15]: > 100 µM | TGI [16]: > 51.2 µM | TGI [17]: 43.8 µM | TGI [18]: 48.8 µM | TGI [19]: 90.9 µM | TGI [20]: 45.7 µM | TGI [21]: > 46.1 µM | TGI [22]: > 100 µM | TGI [23]: > 100 µM | TGI [24]: > 100 µM | TGI [25]: > 92 µM | TGI [26]: > 100 µM | TGI [27]: > 100 µM | TGI [58]: 31 µM | TGI [28]: > 59.3 µM | TGI [29]: > 100 µM | TGI [30]: 48 µM | TGI [31]: > 64.4 µM | TGI [32]: 82.6 µM | TGI [33]: > 100 µM | TGI [34]: > 55.4 µM | TGI [35]: > 100 µM | TGI [36]: 97.5 µM | TGI [37]: > 93.3 µM | TGI [38]: > 100 µM | TGI [39]: > 85.8 µM | TGI [40]: 53.5 µM | TGI [41]: > 100 µM | TGI [43]: > 100 µM | TGI [44]: > 76 µM | TGI [45]: > 100 µM | TGI [46]: > 100 µM | TGI [47]: > 67.8 µM | TGI [48]: > 57.6 µM | TGI [49]: > 51.1 µM | TGI [50]: 30.7 µM | TGI [51]: > 84.4 µM | TGI [52]: 56.6 µM | TGI [59]: 25.8 µM | TGI [53]: 44.4 µM | TGI [54]: > 100 µM | TGI [55]: 35.6 µM | TGI [56]: > 100 µM

O=C(Nc1nc2ccc([N+](=O)[O-])cc2s1)C(=O)C(C1OC(=O)c2ccccc21)[N+](=O)[O-] (centres undefined)
TGI [2]: > 100 µM | TGI [3]: > 100 µM | TGI [4]: > 100 µM | TGI [5]: > 100 µM | TGI [6]: > 100 µM | TGI [7]: > 100 µM | TGI [8]: > 100 µM | TGI [9]: > 100 µM | TGI [10]: > 100 µM | TGI [11]: > 100 µM | TGI [12]: > 100 µM | TGI [13]: > 100 µM | TGI [14]: > 100 µM | TGI [57]: > 100 µM | TGI [15]: > 100 µM | TGI [16]: > 100 µM | TGI [17]: > 100 µM | TGI [18]: > 100 µM | TGI [19]: > 100 µM | TGI [20]: > 100 µM | TGI [21]: > 100 µM | TGI [23]: > 100 µM | TGI [24]: > 100 µM | TGI [25]: > 100 µM | TGI [26]: > 100 µM | TGI [27]: > 100 µM | TGI [58]: > 100 µM | TGI [28]: > 100 µM | TGI [29]: > 100 µM | TGI [30]: > 100 µM | TGI [31]: > 100 µM | TGI [32]: > 100 µM | TGI [33]: > 100 µM | TGI [34]: > 100 µM | TGI [35]: > 100 µM | TGI [36]: 45 µM | TGI [37]: 82.9 µM | TGI [38]: > 100 µM | TGI [39]: > 100 µM | TGI [40]: > 100 µM | TGI [41]: > 100 µM | TGI [42]: > 100 µM | TGI [43]: > 100 µM | TGI [44]: > 100 µM | TGI [45]: > 100 µM | TGI [46]: > 100 µM | TGI [47]: 94.4 µM | TGI [48]: > 100 µM | TGI [49]: > 100 µM | TGI [50]: > 100 µM | TGI [51]: > 100 µM | TGI [59]: > 100 µM | TGI [53]: > 100 µM | TGI [54]: > 100 µM | TGI [56]: > 100 µM
